Measured values reported in US9683231B2, “RNAi-based method of drug screening and characterization” (Massachusetts Institute of Technology, priority 2010, dated 2017).

Legend:
[1] = system: shTopoII, shTopoI or vector control-expressing cells; assay: Long-term survival assay, surviving cells 12 days after drug treatment; format: cell-based
Description: Identification and functional characterization of ill-defined genotoxic drugs. […] (3b) The shATM-Chk2-p53 response signature for apigenin (APG) and NSC3852 (NSC). (3c) The branching pattern for the 18 reference compounds plus APG and NSC. APG clusters with the TopoII poisons Dox and VP-16, whereas NSC clusters with the Topol poison CPT. (3d) A comparison of the shTopoI and shTopoII response signatures for APG and NSC3852 with response signatures derived from established Topol (CPT and CPT11) and TopoII poisons (Dox, Mito and VP-16). […] In each case, one million cells were plated before treatment. Data shown are mean±s.e.m. from three Independent experiments.

[2] = system: Eμ-Mycp19^Arf−/− mouse lymphoma cells; assay: Drug treatment and FACS viability (propidium iodide) to determine LD80-90; format: cell-based; conditions: concentration at which 80-90% of uninfected lymphoma cells were killed, lowest viability of 24, 48 and 72 h between 10% and 20%; for IC (80-90): Mus musculus, read-out: Concentration used (LD80-90)
γ-H2AX = assay: DNA damage response by western blot (γ-H2AX phosphorylation) in TopoI and TopoII knockdown cells; format: cell-based
[3] = system: lymphoma cells expressing shATM, shChk2 or shp53; assay: shATM-Chk2-p53 resistance signature; format: cell-based, mouse; conditions: suppression of ATM, Chk2 and p53
Method: (3d) A comparison of the shTopoI and shTopoII response signatures for APG and NSC3852 with response signatures derived from established Topol (CPT and CPT11) and TopoII poisons (Dox, Mito and VP-16). […] In each case, one million cells were plated before treatment.
Eμ-Mycp19^Arf−/− cells were counted and seeded at 1 million cells per ml in 48-well plates and treated with various concentrations of drugs. To approximate therapeutic situations in which drug dose decreases over time, half of the volume from each experiment was removed and replenished with fresh medium every 24 h. Cells were analyzed by fluorescence-activated cell sorting (FACS), with propidium iodide as a viability marker. LD80-90 of drugs are defined as concentrations at which the lowest viability reading out of three FACS time points (24, 48 and 72 h) is between 10% and 20%. After drug dose was determined, Eμ-Mycp19^Arf−/− cells were infected with retroviruses encoding shRNAs targeting particular genes. Individual infected cell populations were counted and seeded at 1 million cells per ml in 48-well plates and treated with drugs using the aforementioned protocol. At 72 h, treated and untreated cells were analyzed by flow cytometry. GFP percentages of live (PI-negative) cells were recorded and used to calculate relative resistance index.
To compare the relative level of chemoresistance and sensitization conferred by each gene knockdown, the concept of RI (see definition above) was introduced, to more accurately analyze the GFP competition results. The value of RI is defined as X. The biological meaning of this factor X is that in a mixture of uninfected and infected (knockdown) cells, the infected (knockdown) cells will be X-fold as likely to survive drug treatment when compared to uninfected cells. By this definition of X, if one out of n uninfected cells survives a drug treatment, then X our of n infected cells should survive. If the total number of uninfected and infected cells are defined as T and the GFP percentage of untreated population are defined as G1, then the number of surviving, uninfected cells (un) can be defined as n−un=T×(1−G1)×1/n, and the number of surviving, infected cells (in) can be defined as n−in=Tx G1×X/n. […] From this equation, it can be derived that X=(G2−G1×G2)/(G1−G1×G2). This equation was used in the studies to compute RI values.

[4] = system: cells expressing shTopoI or shTopoII; assay: shTopoI and shTopoII response signatures; format: cell-based, mouse; conditions: FIG. 3d
Bim = Bim expression level by western blot; format: cell-based, mouse; conditions: lymphoma cells treated for 6 or 9 hours
Method: 9b, Lymphoma cells were treated with SAHA or DAC for 6 or 9 hours. Bim expression level was analyzed by western blot.

[5] = system: Eμ-Mycp19^Arf−/− lymphoma cells expressing shRNAs targeting the Bcl2 family, p53 and its activating kinases; assay: 29-shRNA GFP competition assay, resistance index (RI), clustering and K-nearest-neighbors; format: cell-based, mouse

Row | SMILES | long-term survival ([1]; TopoI deficiency) | Concentration used (LD80-90) [2] [µM] | induction of DNA damage (γ-H2AX; TopoI-deficient cells) | shATM-Chk2-p53 resistance signature [3] | shTopoI and shTopoII resistance and sensitivity pattern [4] | long-term survival ([1]; TopoII deficiency) | IC (80-90) [2] [µM] | induction of DNA damage (γ-H2AX; TopoII-deficient cells) | levels of the proapoptotic BH3-only protein Bim (Bim) | log2RI ([5]; shRNA targeting Bim (Bim-dependence)) | effect of suppression of the Bim transcription regulator Chop on drug response ([5]; shRNA targeting Chop, FIG. 1d) | log2RI ([5]; shRNA targeting p53 (p53-independence))
1 | O=Nc1ccc(O)c2ncccc12 [NSC3852] | significantly protected | 1.7 | failed to induce DNA damage | strong shATM-Chk2-p53 resistance signature | characteristic pattern of resistance, similar to established TopoI poisons camptothecin and irinotecan |  |  |  |  |  |  | 
2 | O=c1cc(-c2ccc(O)cc2)oc2cc(O)cc(O)c12 [Apigenin] |  |  |  | strong shATM-Chk2-p53 resistance signature | shTopoII resistance and shTopoI sensitivity | significant protection | 0.1 | failed to induce DNA damage |  |  |  | 
3 | O=C(CCCCCCC(=O)Nc1ccccc1)NO [Vorinostat, suberoylanilide hydroxamic acid] |  |  |  |  |  |  | 0.2 |  | increase | ≈ 2 | resistance | ≈ 0
